Assay results: patent US20250136608A1, “COMPOUNDS CONTAINING A GEM-DIFLUORIDE GROUP AND PREPARATION METHOD AND USE THEREOF” (CGENETECH (SUZHOU, CHINA) CO., LTD, priority 2022, published 2025)
pIC50: −log10 of the molar value.

How the values were obtained:
JAK3 = JAK3 (Homo sapiens, UniProt P52333); test: JAK3 kinase inhibitory activity test (HTRF); type: biochemical; conditions: JAK3 0.1 ng/μL, ATP 3 μM, substrate 1 μM, 3 h
in vivo = conditions: male, C57, mouse, po
[1] = Oral pharmacokinetic test in mice; conditions: male, C57, mouse, in vivo, 10 mg/kg

pIC50 (JAK3)	AUC(0-inf) (in vivo; 10 mg/kg) [ng·h/mL]	AUC(0-t) (in vivo; 10 mg/kg) [ng·h/mL]	Cmax (in vivo; 10 mg/kg) [ng/mL]	MRT inf (in vivo; 10 mg/kg) [min]	MRT last (in vivo; 10 mg/kg) [min]	Tmax (in vivo; 10 mg/kg) [min]	half-life (in vivo; 10 mg/kg) [min]	SMILES	other results
6.94	4770	4760	6770	36.6	36	4.8	44.4	N#CC[C@H](CCC(F)(F)F)n1cc(-c2ncnc3[nH]ccc23)cn1 [Compound 6-2]	–
6.32	1660	1660	3190	30.6	29.4	4.8	89.4	N#CCC(C1CC(F)(F)C1)n1cc(-c2ncnc3[nH]ccc23)cn1 (centres unmarked) [Compound 7]	–
6.40	–	–	–	–	–	–	–	N#CCC(n1cc(-c2ncnc3[nH]ccc23)cn1)C1(C(F)(F)F)CCC1 (centres unmarked) [Compound 9]	–
6.51	9240	9230	6320	69	68.4	15	50.4	N#CC[C@@H](CCC(F)(F)F)n1cc(-c2ncnc3[nH]ccc23)cn1 [Compound 6-1]	–
6.38	–	–	–	–	–	–	–	CC(C)(C(CC#N)n1cc(-c2ncnc3[nH]ccc23)cn1)C(F)(F)F (centres unmarked) [Compound 8]	–

Further lines, the compound ahead of its results:

SMILES	pIC50 (JAK3)	AUC(0-inf) (in vivo; 10 mg/kg) [ng·h/mL]	AUC(0-t) (in vivo; 10 mg/kg) [ng·h/mL]	Cmax (in vivo; 10 mg/kg) [ng/mL]	MRT inf (in vivo; 10 mg/kg) [min]	MRT last (in vivo; 10 mg/kg) [min]	Tmax (in vivo; 10 mg/kg) [min]	half-life (in vivo; 10 mg/kg) [min]	other results
N#CCC1(n2cc(-c3ncnc4[nH]ccc34)cn2)CCC(F)(F)CC1 [Compound 1]	–	–	–	–	–	–	–	–	AUC(0-inf) [1]: 2150 ng·h/mL; AUC(0-t) [1]: 2130 ng·h/mL; Cmax [1]: 1480 ng/mL; MRT inf [1]: 81 min; MRT last [1]: 75 min; Tmax [1]: 19.8 min; half-life [1]: 70.8 min
N#CCC1(n2cc(-c3ncnc4[nH]ccc34)cn2)CCC(C(F)(F)F)CC1 (centres unmarked) [Compound 3]	6.82	–	–	–	–	–	–	–	–
N#CCC(C1CCC(C(F)(F)F)CC1)n1cc(-c2ncnc3[nH]ccc23)cn1 (centres unmarked) [Compound 5]	6.31	2000	1980	1410	78.6	73.2	15	81.6	–
N#CC[C@H](C1CCCC1)n1cc(-c2ncnc3[nH]ccc23)cn1 [Ruxolitinib, reference compound]	–	–	–	–	–	–	–	–	AUC(0-inf) (in vivo; 5 mg/kg): 580 ng·h/mL; AUC(0-t) (in vivo; 5 mg/kg): 578 ng·h/mL; Cmax (in vivo; 5 mg/kg): 893 ng/mL; MRT inf (in vivo; 5 mg/kg): 42.6 min; MRT last (in vivo; 5 mg/kg): 42 min; Tmax (in vivo; 5 mg/kg): 7.8 min; half-life (in vivo; 5 mg/kg): 30 min
N#CCC(C1CCC(F)(F)CC1)n1cc(-c2ncnc3[nH]ccc23)cn1 (centres unmarked) [Compound 4]	6.40	–	–	–	–	–	–	–	–
